The data set is described as follows: gradient 5% acetonitrile 3 min, to 50% in 2 min, to 85% in 15 min, held 3 min, 100 µL/min. The note with it: column: Zorbax Extend-C18 2.1 x 50 mm; eluents: water / acetonitrile, 0.1% formic acid. The gist of the method: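 Using water and acetonitrile that each contained 0.1% formic acid, mixtures of ~100 pure standards were separated at 100 μL/min on a Zorbax Extend-C18 column (2.1 × 50 mm, 1.8 μm). The HPLC fed a quadrupole time-of-flight mass spectrometer working in positive and negative ionization mode, with dead and dwell volumes of 40 μL and 900 μL. Data were acquired over 3 months. Retention time was read from computationally picked adduct peaks after manual inspection of each.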
`CC(C)n1cnc(S(=O)(=O)N2CCCC(C(=O)Nc3cccc(F)c3)C2)c1` (stereo not given) came in with an RP-LC retention time of 726 s.
As for `COc1ccccc1N1CCN(c2cc(SCC(=O)Nc3cccc(Cl)c3F)ncn2)CC1`, the RP-LC retention time is 1270 s.
With `CCCNC(=O)CN1CCN(Cc2ccccc2)C1=O` the figure was 675 s.
Turning to `Cc1[nH]c(-c2ccc(Cl)cc2)cc1C(=O)NC1CCCC1`, the RP-LC retention time turned out to be 947 s.
With `O=C(Cc1cccn1-c1ccccc1)NCc1cc(F)ccc1F` the figure was 936 s; with `Cc1ccc(CC(=O)Nc2ccc3nc(N4CCN(CC(=O)N(C)C)CC4)cc(C(=O)O)c3c2)cc1`, 604 s.
With `O=C1Nc2ccccc2OC1C(=O)N1CCC(Cc2ccccc2)CC1` (stereo not given) the figure was 920 s; with `Cc1cccc(Nc2c(-c3ccccc3)nc3nc(C)cc(C)n23)c1`, 741 s.
Consider `CCN1C(=O)c2cccnc2Sc2cc(NC(=O)C3CCCCC3)ccc21`, for which the RP-LC retention time turned out to be 877 s.
With `NS(=O)(=O)c1ccc(CCNC(=O)c2n[nH]c3ccccc23)cc1` the figure was 612 s.
The compound `COc1cc2ncc(C#N)c(N3CCC(C(=O)Nc4cccc(Cl)c4)CC3)c2cc1OC` displayed an RP-LC retention time of 816 s.
As for `Cc1ccc(C)c(CNC(=O)CCc2conc2-c2ccc(F)cc2)c1`, the RP-LC retention time worked out at 1010 s.
With `CCn1nnc2c(N3CCN(S(=O)(=O)c4cccc(C(F)(F)F)c4)CC3)ncnc21` the figure was 894 s.
The compound `COc1ccc(NC(=O)C2CCc3sc(C(=O)N4CCCC4)cc3C2)c(OC)c1` (stereo not given) gave an RP-LC retention time of 756 s.
With `CC(C)Cn1cc(CCNS(=O)(=O)c2ccc(F)c(Cl)c2)c2cccnc21` the figure was 1000 s; with `C#Cc1cccc(Nc2ncnc3cc4c(cc23)OCCOCCOCCO4)c1`, 674 s.
With `CCOCCCNC(=O)[C@@H]1[C@H](c2cc(OC)c(OC)c(OC)c2)c2cc3c(cc2[C@H](O)[C@H]1CO)OCO3` the figure was 653 s.
To `CC(=O)Nc1nsc(N2CCC(C(=O)N3CCN(c4ccccc4F)CC3)CC2)n1` belongs 695 s; to `CCOC(=O)c1nc(N(C)c2ccc(F)cc2)c2ccccc2n1`, 909 s; to `Cc1ccc(-c2nc3nc(C)cc(C)n3c2Nc2ccccc2C)cc1`, 782 s.
Regarding `CCCN(CC1CCOC1)C(=O)Nc1cc(Cl)ccc1OC` (stereo not given), the RP-LC retention time is 961 s.
With `CCc1onc(C)c1C1CCCN1C(=O)c1ccc(F)cc1` (stereo not given) the figure was 736 s; with `COCCNC(=O)C1(c2ccc(NC(=O)c3cccs3)cc2)CC1`, 730 s; with `COc1ccc(Cl)cc1S(=O)(=O)N1CCCN(c2ccc(=O)n(-c3ccccc3)n2)CC1`, 906 s.
To `CCc1cc(C(=O)Nc2ccc(C#N)cc2)nc2cc(-c3ccco3)nn12` belongs 1130 s.
With `Cc1cc(C)n(CCNC(=O)NC(c2ccccc2)c2ccccc2)n1` the figure was 716 s.
Consider `CSc1ccc(CCNC(=O)c2ccc(CN3CC(=O)N4CCCCC4C3=O)cc2)cc1` (stereo not given), for which the RP-LC retention time turned out to be 738 s.
In the case of `CC(=O)N1CCCc2ccc(NC(=O)Cc3ccc(Cl)cc3)cc21`, the RP-LC retention time is 816 s.
With `Cc1ccc(-c2noc(C3CCCN3C(=O)C3CCN(S(=O)(=O)c4ccc(C)cc4)CC3)n2)cc1` (stereo not given) the figure was 1080 s; with `CC1=NS(=O)(=O)N(Cc2ccccc2)C=C1C(=O)OCc1ccc(C(C)(C)C)cc1`, 1320 s.
To `CCN(CC)CCNC(=O)C1CCN(c2nccnc2Sc2ccccc2)CC1` belongs 657 s; to `CCOC(=O)C1CCCN(c2c(NCC3COc4ccccc4O3)c(=O)c2=O)C1` (stereo not given), 796 s; to `CCN1c2ccc(Cl)cc2C(=O)NC12CCN(C(=O)NCc1ccccc1)CC2`, 837 s.
To `Cc1nc(-c2cccnc2)nc2c1CC(=O)N2C(C)C` belongs 654 s; to `COc1c(C(=O)NC(C)C)sc2cc(Cl)ccc12`, 1060 s.
`O=C(Cn1cccc1-c1nnc(C2CC2)o1)NCc1ccccc1Cl` came in with an RP-LC retention time of 815 s.
With `CCN1C(=O)COc2ccc(-c3noc(C(C)NC(=O)c4ccccc4)n3)cc21` (stereo not given) the figure was 856 s.
With `Cc1oc(C2CCN(C(=O)Nc3ccc4c(c3)CCC4)CC2)nc1C(=O)N(C)C` the figure was 766 s.
For `Cc1[nH]c(=O)[nH]c(=O)c1CC(=O)Nc1cccc(NS(C)(=O)=O)c1`, the RP-LC retention time stood at 549 s.
The compound `Cc1ccc(-c2cc3c(=O)n(Cc4noc(CN5CCOCC5)n4)ccn3n2)c(C)c1` registered an RP-LC retention time of 792 s.
`O=C1CC(NC(=O)Nc2ccccc2C(F)(F)F)CN1` (stereo not given) returned an RP-LC retention time of 595 s.
Compound `Cc1ccc(NS(=O)(=O)c2cc3c(s2)CCN(C(=O)C2CCC2)C3)cc1F` showed an RP-LC retention time of 911 s.
With `CCc1ccc(NS(=O)(=O)c2ccc3c(c2)C(=O)N(CC)c2ncccc2O3)cc1` the figure was 1020 s.
To `O=C1CN(c2ccccc2NC(=O)c2ccc[nH]c2=O)CCN1` belongs 588 s; to `COC(=O)c1cc(OCC(=O)NC2CCCC2)c2cc(OC)ccc2n1`, 739 s; to `O=C(CCNc1c(-c2cccc(F)c2)nc2cnccn12)N1CCOCC1`, 630 s.
With `O=S(=O)(c1ccc2c(c1)CCCC2)N1CCCn2nc(-c3cccnc3)cc2C1` the figure was 781 s; with `Cc1oc(C2CCN(S(=O)(=O)c3ccc(C(C)C)cc3)CC2)nc1C(=O)N1CCCC1`, 1070 s; with `Cc1ccc(Cl)cc1NC(=O)N1CCC(c2cc(N)on2)CC1`, 736 s.
For the compound `CCCCS(=O)(=O)N1CC=C(c2cn(C)c3ncccc23)CC1`, the RP-LC retention time stood at 879 s.
Consider `Cc1ccc(S(=O)(=O)c2cnc(N3CCC(C(N)=O)(N4CCCCC4)CC3)nc2N)cc1`, for which the RP-LC retention time turned out to be 613 s.
With `Cc1ccc(-c2cnc(N3CCCC(C(=O)NCc4ccc5c(c4)OCO5)C3)nc2)cc1` (stereo not given) the figure was 1060 s; with `Cc1noc(C2CN(C(=O)Nc3cccc(Cl)c3C)CC23CCOCC3)n1` (stereo not given), 792 s.
To `Cn1c(CN2CCN(C(=O)c3cc4ccccc4o3)CC2)nc2ccccc21` belongs 580 s; to `O=C(NCc1ccc(-c2noc(CCc3ccccc3)n2)s1)C1CC1`, 915 s.
Take `CCCNC(=O)c1ccc(-c2nc3cc(NS(=O)(=O)c4cccs4)ccc3n2C)cc1`: the RP-LC retention time was determined as 662 s.
With `CCCCN1CCN(C(=O)c2cn(-c3cc(N4CCC(C)CC4)ncn3)cn2)CC1` the figure was 690 s; with `O=C(NCc1csc(C2CCN(C(=O)c3cc(F)ccc3F)CC2)n1)C1CC1`, 668 s; with `COC(=O)C1=CN(c2cccc(F)c2)c2ccc(F)cc2S1(=O)=O`, 838 s.
To `Cc1ccc(Nc2nc(C(=O)NC(C)Cc3ccco3)nc3ccccc23)cc1` (stereo not given) belongs 873 s; to `O=C(c1ncccn1)N1C[C@@H](COCC2CC2)[C@H](c2ccncc2)C1`, 654 s; to `CCCC(C)NC(=O)c1ccc2c(c1)CCCN2S(C)(=O)=O` (stereo not given), 827 s.
`Cc1nc2c(-c3ccc(F)cc3)c(C)nn2c(C)c1CCC(=O)N1CCN(c2ccccn2)CC1` gave an RP-LC retention time of 682 s.
With `O=C(COc1ccc(Cl)cc1Cl)Nc1nc(-c2ccccc2)cs1` the figure was 1190 s; with `CC1=C(c2ccccc2)S(=O)(=O)N=C1N1CCCN(C(=O)CC(C)(C)C)CC1`, 854 s; with `CCc1ccccc1NC(=O)CSc1nnc2c3cc(-c4ccc(C)cc4)nn3ccn12`, 989 s.
With `CN1C(=O)c2cccn2CC1C(=O)NCc1cccs1` (stereo not given) the figure was 654 s.
With `CCCCC(=O)Nc1ccc2c(c1)nc(CN1CCN(C)CC1)n2C(C)C` the figure was 575 s; with `Cc1ccc(Cn2cc(-c3ccncc3)cc2C(=O)Nc2ccc3c(c2)OCO3)cc1`, 760 s.
`C[C@H]1CN(C(=O)c2c(F)cccc2F)C[C@@H]1c1nc(-c2ccncc2)no1` displayed an RP-LC retention time of 798 s.
To `CC(C)c1noc(C2CCCCN2Cc2nc(-c3cccnc3)no2)n1` (stereo not given) belongs 832 s; to `COCCCNC(=O)Cn1c(=O)n(-c2ccc(F)cc2)c2ncccc21`, 1390 s.
With `Cc1csc(-c2csc(S(=O)(=O)N3CCC(Cc4ccccc4)CC3)c2)n1` the figure was 1270 s; with `Cc1ccc(C(=O)Nc2nnc(SCc3nnc(-c4ccccc4C)o3)s2)cc1`, 1040 s; with `O=C(NCc1cccs1)C1CCN(S(=O)(=O)c2cc(-c3noc(C4CCC4)n3)cs2)CC1`, 1000 s.
To `CC(CCc1ccccc1)NC(=O)c1cc2sccc2n1Cc1ccc(F)cc1` (stereo not given) belongs 1190 s.
In the case of `CNC(=O)Nc1ccc(C2(C(=O)NC3CCCC3)CCC2)cc1`, the RP-LC retention time stood at 692 s.
To `COc1cccc(S(=O)(=O)NCc2ccc(C(=O)Nc3cccc(Cl)c3)cc2)c1` belongs 922 s; to `CCc1ccccc1S(=O)(=O)N(C)CC1CCOCC1`, 902 s; to `CC(NC(=O)c1sc2ncccc2c1-n1cccc1)c1ccc(F)cc1` (stereo not given), 1070 s.

The values are drawn from the METLIN SMRT retention time set (Domingo-Almenara et al. 2019).
